In patent US20240197712A1, “TGF-BETA INHIBITION FOR IMMUNODEFICIENCY VIRUS REACTIVATION FROM LATENCY, ENHANCEMENT OF IMMUNODEFICIENCY VIRUS-SPECIFIC RESPONSES AND IMMUNODEFICIENCY VIRUS CURE” (Northwestern University, priority 2022, published 2024):

Assays:
[1] = system: primary CD4+ T cells; experiment: Primary CD4+ T cell model of HIV-1 latency, p24 ICS; type: cell-based, human; settings: primary CD4+ T cells infected with HIV ADA; PMA 100 ng/ml; TGF-β1 10 ng/ml or galunisertib 1 μM
Method: Next, the impact of TGF-β1 on a primary model of HIV-1 latency was tested using freshly isolated CD4+ T cells. The experiment was based on the model by Berkhout and colleagues (50) with some modifications (FIG. 1F). Specifically, CD4+ T cells were isolated from HIV-1 uninfected, de-identified donor PBMC and activated them with PHA and IL-2 for 3 days before infection via spinoculation with HIV ADA. After extensive wash of the viral inoculum, cells were cultured 48 hrs in presence of T20 (enfuvirtide) to avoid viral spread beyond the cells with initial integrations. The overall initial infection achieved was very low despite the spinoculation step (˜0.1% of p24-gag+ cells, FIGS. 3A-3B).
Blood from de-identified donors was obtained from the New York Blood Bank and used as source of CD4 T cells for the primary model of HIV latency in vitro. Total CD4+ T cells were isolated with the CD4 T cells isolation kit (Miltenyi) and activated with 5 μg/ml of PHA and 50 U/ml of IL-2 for 3 days. After washing out the PHA, cells were infected with 200TCID50 of HIV-ADA (NIH HIV Reagent Program) in 12 or 24 wells/plates and spinoculated at 1200 g for 2 hrs at 25° C. After additional 3 hrs of incubation at 37° C., viral inoculum was washed and cells plated in presence of T20 (Enfurtivide acetate salt, 1 μM NIH AIDS reagent program). […]

[2] = system: SIVmac251 or SIVmac239; experiment: Plasma viral load, SIV-infected ART-treated macaques, 1-2 weeks galunisertib; type: in vivo, rhesus macaques
Method: Rhesus macaques (n=7) were infected with SIVmac251 or SIVmac239 rectally or intravenously (FIG. 9) and ART (Tenofovir [PMPA], Emtricitabine [FTC] and Dolutegravir [DTG]) was initiated between week 12 and 17 post infection. Galunisertib treatment was initiated after 26 or 27 weeks on ART for 7 or 14 days. Galunisertib powder (MedChemExpress—MCE, NJ, USA) was dissolved in water and given orally in a treat twice daily at 5 mg/kg or 10 mg/kg (FIG. 9). Blood viral load was monitored biweekly before and during cART and every 3-4 days during 438 Galunisertib treatment. Colorectal biopsies and LN FNA were collected before and after galunisertib treatment.
Blood was collected in EDTA tubes and plasma was separated by density gradient centrifugation and used for the determination of plasma VL by SIVgag qRT-PCR at NIRC or at Leidos (Quantitative Molecular Diagnostics Core, AIDS and Cancer Virus Program Frederick National Laboratory). Tissue VL from snap frozen colorectal biopsies and LN FNA were performed at Leidos (A14X004, A14X005 and A14X013) as described in (78) or, for the remaining macaques and from PBMC of all macaques they were performed as described in (77).

[3] = system: T and NK cells; experiment: High parameter flow cytometry of PBMC T and NK cells; type: in vivo, rhesus macaques
Excerpt: Colorectal biopsy tissues were isolated by enzymatic digestion while LN biopsies were passed through a 70 μm cell strainer as described in (110). FlowJo vs 10.8 was use for both classical and high-dimensional analysis. PeacoQC, FlowtSNE and FlowSOM plug-ins were used with default settings. SwiftReg was used for normalization (113).
Peripheral blood mononuclear cells (PBMCs) collected from 8 macaques at 7 time points spanning Cycle 1 to Cycle 4 (refer to Table 5) were employed for high-parameter flow cytometry staining. Cells from before and after cycle 1 and at the end of cycle 3 were used for Tfh/Treg assay. In both cases, cell fixation and permeabilization for intracellular staining were carried out using the FoxP3 Staining Buffer set (Thermo Fisher Scientific, Carlsbad, CA). The high-dimensional panel consisted of antibodies outlined in Table 4, catering to requirements for surface and intracellular staining, as well as viability assessment. Each antibody was individually titrated to ensure optimal staining conditions. Data acquisition was performed using the FACSymphony A5.2 Spectral Analyzer. Following data collection, spectral compensation was implemented utilizing FlowJo™ v10.8 Software (BD Life Sciences). 60,000 live singlet lymphocytes from each of samples was downsampled to prevent disproportionate representation by samples with higher cell counts, ensuring balanced subsequent analysis. To mitigate batch effects, we utilized the swiftReg Neighbor-Dependent Cluster Registration (NDCR) method available within the SWIFT package(112). This method effectively addresses batch variations while preserving the inherent biological diversity. […] Furthermore, we implemented the Peak Extraction and Cleaning Oriented Quality Control (PeacoQC) procedure (138) in FlowJo™ v10.8 to eliminate low-quality events arising from potential issues like clogs, speed fluctuations, and slow sample uptake. FlowSOM FlowJo plugin was employed for automated cell population identification, preceded by the utilization of Phenograph to obtain optimal cluster numbers for dimensional reduction, for the merged data of All Time points and BC1 vs AC4 merged data respectively. The Supplementary FIG. 29A heatmap illustrates the median fluorescence intensity (MFI) values for all markers across all clusters. A tSNE plot, generated in FlowJo™ using the markers employed in the FlowSOM analysis, is presented, with coloring based on the FlowSOM clustering or two specific time points, BC1 vs AC4 in FIG. 4G.

[4] = system: TGF-β; experiment: Total TGF-β in plasma by ELISA; type: in vivo, rhesus macaques; settings: baseline vs W1/2
Excerpt: FIGS. 16A-16B. […] (FIG. 16A) The concentration of total TGF-β in the plasma before and after galunisertib as detected by ELISA is shown. Wilcoxon matched-pairs test was used to compare BL with W1/2 data, Significant p-value of α<0.05 (*) is shown. (FIG. 16B) No correlation is present between the concentration of TGF-β before treatment in blood and the change in Gut-SUVTot in each animal after galunisertib treatment (p=0.199; Person R=0.304).

Cc1cccc(-c2nn3c(c2-c2ccnc4ccc(C(N)=O)cc24)CCC3)n1 [galunisertib, Galunisertib] was tested, and the “PMA-induced frequency of p24-gag+ cells” value [1] was “did not alter”, the “macaques with increase in pVL over 100 copies/ml” value ([2]; 5 or 10 mg/kg orally twice per day, 1 or 2 weeks) was 2 of the 7 and the “increase in pVL in macaque not continuously suppressed before treatment” value ([2]; single macaque (A14X)) was greater than 2 Log. For the same compound, the “proliferation marker Ki67 in NK cells” value ([3]; AC1 vs BC1) was “initial increase”, the “T-Bet in CD8+ T cells” value ([3]; BC2 vs BC1) was “significant decrease” and the systemic immune activation ([3]; Example 5, end of 1st cycle, PBMC RNAseq, CD69 and CD38 on T cells) was “did non induce systemic immune activation”. For the same compound, the “effector phenotype in T cells (CD95, CD62L)” value ([3]; Example 5, preliminary data) was “increased expression of CD95”, the “TCF1 expression in CD4+ T cells” value ([3]; PBMC, throughout treatment) was “profound consistent decrease” and the “expression of CD95 in CD4+ T cells” value ([3]; PBMC, throughout treatment) was “substantial increase”. The “CD62L in CD4+ T cells” value ([3]; after the first cycle, reverted to baseline later) was “small decrease”, the “expression of activation markers CD69, HLA-DR and Ki67 in CD4+ T cells” value ([3]; exception: HLA-DR increase at beginning of cycle 2) was “remained mostly unchanged” and the “CCR7 expression in memory CD8+ T cells” value ([3]; rhesus monkey, in vivo) was “sustained significant increase”. The “CD16 expression within NKG2A+CD8+ NK cells” value ([3]; rhesus monkey, in vivo) was “pronounced increase”, the “CD95 expression in CD8+ T cells” value ([3]; rhesus monkey, in vivo) was “No significant increase” and the “TCF1 downregulation in CD8+ T cells” value ([3]; rhesus monkey, in vivo) was “reached significance only at the end of the treatment”. For the same compound, the “expression of CCR7 or CD28 within CD95+CD4+ T cells” value ([3]; rhesus monkey, in vivo) was “no change”, the “expression of PD1 on CD4+ and CD8+ T cells” value ([3]; rhesus monkey, in vivo) was “either did not change or was slightly downregulated” and the “frequency of naïve (CD95−) cells within CD4+ T cells” value ([3]; rhesus monkey, in vivo) was “decreased”. The “gut homing receptor integrin α4β7 in CD4+ T cells” value ([3]; rhesus monkey, in vivo) was “downregulation”, the “levels of T-bet in CD4+ T cells” value ([3]; rhesus monkey, in vivo) was “did not change significantly” and the “levels of granzyme B in CD4+ T cells” value ([3]; rhesus monkey, in vivo) was “decrease”. For the same compound, the “levels of TGF-β in blood after treatment” value [4] was “increases in the levels of TGF-β”.
